In ChEMBL document CHEMBL1151557, “Simplified analogs of himbacine displaying potent binding affinity for muscarinic receptors” (Bioorg Med Chem Lett, 1993) one finds Kd data, which are given here for ten molecules.

Usually Kd stands for the free concentration of one partner at which half of the binding sites on the other are occupied at equilibrium, for simple one-to-one binding.

The target of assay [1] is T1, Muscarinic acetylcholine receptor M2 (Rattus norvegicus, UniProt P10980).
T1 sequence (P10980 whole entry): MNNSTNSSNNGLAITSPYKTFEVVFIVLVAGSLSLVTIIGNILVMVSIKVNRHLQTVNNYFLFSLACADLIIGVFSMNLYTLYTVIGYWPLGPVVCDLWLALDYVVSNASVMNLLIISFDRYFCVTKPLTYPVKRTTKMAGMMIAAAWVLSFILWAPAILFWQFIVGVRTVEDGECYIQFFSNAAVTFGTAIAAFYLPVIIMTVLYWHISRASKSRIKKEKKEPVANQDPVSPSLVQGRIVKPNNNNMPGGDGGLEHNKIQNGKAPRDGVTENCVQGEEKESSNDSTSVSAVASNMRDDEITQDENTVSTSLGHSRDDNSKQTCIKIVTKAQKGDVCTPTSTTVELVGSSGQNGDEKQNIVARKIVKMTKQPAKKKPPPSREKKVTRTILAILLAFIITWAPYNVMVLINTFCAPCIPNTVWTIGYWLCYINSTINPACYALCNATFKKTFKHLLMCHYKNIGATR
Nature of the assay: Displacement of [3H]QNB from rat brain stem muscarinic receptor 2 (M2).

Assay [2] concerns the target T2, Muscarinic acetylcholine receptor M1 (Homo sapiens, UniProt P11229).
T2 sequence (P11229 whole entry): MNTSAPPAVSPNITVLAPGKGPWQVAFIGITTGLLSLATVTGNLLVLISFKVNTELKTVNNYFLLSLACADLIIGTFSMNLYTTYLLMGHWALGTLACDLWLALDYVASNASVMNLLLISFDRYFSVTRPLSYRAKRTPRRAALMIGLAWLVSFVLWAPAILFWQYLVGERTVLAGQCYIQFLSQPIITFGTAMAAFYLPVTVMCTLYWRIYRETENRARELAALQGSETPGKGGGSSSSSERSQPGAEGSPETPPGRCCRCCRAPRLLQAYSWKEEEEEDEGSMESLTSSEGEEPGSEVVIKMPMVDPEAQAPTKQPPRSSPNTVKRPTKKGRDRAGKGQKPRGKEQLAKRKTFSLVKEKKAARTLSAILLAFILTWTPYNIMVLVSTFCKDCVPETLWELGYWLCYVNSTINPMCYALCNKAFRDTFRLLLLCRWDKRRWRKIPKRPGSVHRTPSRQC
Nature of the assay: Displacement of [3H]QNB from muscarinic receptor 1 expressed in CHO-K1 cells. Type of assay: cell-based. Background: In a radioligand displacement assay an active substance lowers the binding of a labelled ligand.

Turning to `CN1CCCCC1C/C=C/C1c2ccccc2Cc2ccccc21` (stereo not given), the Kd in assay [1] is 22.6 nM; in assay [2] it was 5.23 nM.

Regarding `CN1CCCCC1CCC=C1c2ccccc2Cc2ccccc21` (stereo not given), the values for the Kd in assay [1] and in assay [2] were 7.64 nM and 4.99 nM, respectively.

`CN1CCCC[C@@H]1/C=C/C1c2ccccc2Cc2ccccc21`: the Kd in assay [1] stood at 3.17 nM; in assay [2] it was 1.53 nM.

As to `CN1CCCCC1/C=C/c1c2ccccc2cc2ccccc12` (stereo not given), the Kd in assay [1] was 635 nM; in assay [2], 679 nM.

Take `CN1CCCC[C@@H]1CC=C1c2ccccc2Cc2ccccc21`: the equilibrium dissociation constant (Kd) amounted to 14.5 nM in assay [1] and 11.6 nM in assay [2].

On to `CN1CCCC[C@H]1CC=C1c2ccccc2Cc2ccccc21`, for which the Kd is 35 nM in assay [1] and 24.2 nM in assay [2].

In the case of `CN1CCCC[C@H]1/C=C/C1c2ccccc2Cc2ccccc21`, the Kd in assay [1] came to 2.19 nM; in assay [2] it was 4.92 nM.

In the case of `CN1CCCCC1/C=C/C1c2ccccc2Cc2ccccc21` (racemic), the Kd worked out at 20.5 nM in assay [1] and 1.75 nM in assay [2].

With `CN1CCCCC1CC=C1c2ccccc2Cc2ccccc21` (racemic), the values for the Kd in assay [1] and in assay [2] were 3 nM and 2.7 nM, respectively.

For the molecule `C[C@@H]1OC(=O)[C@H]2C[C@H]3CCCC[C@@H]3[C@@H](/C=C/[C@H]3CCC[C@H](C)N3C)[C@@H]12` [HIMBACINE], the Kd came to 9.05 nM in assay [1] and 168 nM in assay [2].
